24 compounds from ChEMBL document CHEMBL1153482, “Design of selective Cathepsin inhibitors” (Bioorg Med Chem Lett, 2009) can be followed below.

One may read the IC50 as the point on the concentration scale where inhibition reaches its midpoint.

The target of one experiment is Procathepsin L (Homo sapiens, UniProt P07711). In words: Inhibition of cathepsin L assessed as inhibition of fluorogenic substrate cleavage.
For a further experiment, the target named is T1, Cathepsin L2 (Homo sapiens, UniProt O60911).
T1 sequence (O60911 whole entry): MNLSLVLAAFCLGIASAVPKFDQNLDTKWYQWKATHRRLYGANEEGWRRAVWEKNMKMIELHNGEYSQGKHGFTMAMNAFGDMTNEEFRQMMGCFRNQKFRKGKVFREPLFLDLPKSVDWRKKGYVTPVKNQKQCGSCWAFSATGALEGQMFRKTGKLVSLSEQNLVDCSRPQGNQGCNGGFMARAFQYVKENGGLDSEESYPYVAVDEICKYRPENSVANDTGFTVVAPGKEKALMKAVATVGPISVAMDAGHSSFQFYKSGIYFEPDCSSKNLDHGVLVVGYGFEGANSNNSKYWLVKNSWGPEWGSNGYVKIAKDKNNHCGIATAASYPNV
Briefly: Inhibition of cathepsin L2 assessed as inhibition of fluorogenic substrate cleavage.

A further experiment addresses Cathepsin B (Homo sapiens, UniProt P07858). In words: Inhibition of human liver cathepsin B assessed as inhibition of fluorogenic substrate cleavage.
The target of another experiment is T2, Cathepsin K (Homo sapiens, UniProt P43235).
T2 sequence (P43235 whole entry): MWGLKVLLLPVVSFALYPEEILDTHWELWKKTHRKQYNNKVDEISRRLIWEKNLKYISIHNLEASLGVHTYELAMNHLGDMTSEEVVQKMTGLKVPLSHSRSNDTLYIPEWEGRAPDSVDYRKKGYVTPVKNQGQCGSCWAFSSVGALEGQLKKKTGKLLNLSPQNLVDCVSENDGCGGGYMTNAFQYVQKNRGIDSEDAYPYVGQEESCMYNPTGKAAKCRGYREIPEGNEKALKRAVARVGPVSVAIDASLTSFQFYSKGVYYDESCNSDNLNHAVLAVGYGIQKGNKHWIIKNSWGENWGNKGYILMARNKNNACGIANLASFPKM
Briefly: Inhibition of cathepsin K assessed as inhibition of fluorogenic substrate cleavage.

The next experiment addresses Cathepsin S (Homo sapiens, UniProt P25774). Briefly: Inhibition of cathepsin S assessed as inhibition of fluorogenic substrate cleavage.

Chain of Procathepsin L (P07711 whole entry): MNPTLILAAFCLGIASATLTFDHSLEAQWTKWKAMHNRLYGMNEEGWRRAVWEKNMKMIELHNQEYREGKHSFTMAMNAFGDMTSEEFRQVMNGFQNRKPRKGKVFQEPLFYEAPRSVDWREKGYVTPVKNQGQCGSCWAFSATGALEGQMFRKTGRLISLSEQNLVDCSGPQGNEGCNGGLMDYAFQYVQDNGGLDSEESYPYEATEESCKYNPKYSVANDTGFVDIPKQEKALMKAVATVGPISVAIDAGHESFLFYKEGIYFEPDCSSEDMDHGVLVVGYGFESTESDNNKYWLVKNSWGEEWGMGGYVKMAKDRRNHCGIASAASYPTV
Chain of Cathepsin S (P25774 whole entry): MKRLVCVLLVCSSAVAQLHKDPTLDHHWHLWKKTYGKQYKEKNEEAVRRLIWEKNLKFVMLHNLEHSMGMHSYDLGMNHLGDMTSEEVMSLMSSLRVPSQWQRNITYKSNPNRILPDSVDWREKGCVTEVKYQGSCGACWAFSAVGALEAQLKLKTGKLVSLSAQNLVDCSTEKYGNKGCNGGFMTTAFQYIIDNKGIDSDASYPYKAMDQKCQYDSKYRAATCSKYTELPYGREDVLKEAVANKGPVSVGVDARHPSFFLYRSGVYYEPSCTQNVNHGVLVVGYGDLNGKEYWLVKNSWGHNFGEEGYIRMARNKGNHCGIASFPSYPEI

As to `N#CCNC(=O)[C@H](Cc1cccc(-c2ccncc2)c1)NC(=O)c1ccccc1`, the IC50 on Procathepsin L is 1580 nM; on Cathepsin L2, 3160 nM; on Cathepsin B it was over 10000 nM; on Cathepsin K, over 10000 nM; at Cathepsin S, 251 nM.
As to `N#CCNC(=O)[C@H](Cc1cccc(-c2nnco2)c1)NC(=O)c1ccccc1`, the IC50 is 501 nM at Procathepsin L; 158 nM at Cathepsin L2; over 10000 nM at Cathepsin B; 1260 nM on Cathepsin K; 20 nM at Cathepsin S.
In the case of `N#CCNC(=O)[C@H](Cc1cccc(-c2cccnn2)c1)NC(=O)c1ccccc1`, the IC50 on Procathepsin L was 1260 nM; on Cathepsin L2 it was 63.1 nM; on Cathepsin B it was 6310 nM; at Cathepsin K, over 6310 nM; on Cathepsin S it was 7.94 nM.
On to `Cn1nc(C(C)(C)C)cc1C(=O)N[C@@H](Cc1cccc(Cl)c1)C(=O)NCC#N`, for which the IC50 at Procathepsin L is 12.6 nM; on Cathepsin L2, 200 nM; at Cathepsin B, 6310 nM; at Cathepsin K, 3160 nM; at Cathepsin S it was 1000 nM.
For the compound `Cn1nc(C(C)(C)C)cc1C(=O)N[C@@H](Cc1cccc(-c2nnc(CO)o2)c1)C(=O)NCC#N`, the concentration for half-maximal inhibition (IC50) on Procathepsin L is 6.31 nM; at Cathepsin L2 it was 7.94 nM; at Cathepsin B, over 10000 nM; on Cathepsin K, 100 nM; at Cathepsin S it was 63.1 nM.
Take `N#CCNC(=O)[C@H](Cc1cccc(-c2cccnc2)c1)NC(=O)c1ccccc1`: the IC50 at Procathepsin L is 2000 nM; on Cathepsin L2, 3980 nM; on Cathepsin B, 7940 nM; at Cathepsin K it was over 7940 nM; at Cathepsin S it was 126 nM.
Take `Cn1nc(C(C)(C)C)cc1C(=O)N[C@@H](Cc1cccc(-c2nnc(CCN)o2)c1)C(=O)NCC#N`: the IC50 on Procathepsin L was 1.26 nM; on Cathepsin L2, 100 nM; on Cathepsin B it was 6310 nM; at Cathepsin K it was 158 nM; on Cathepsin S, 63.1 nM.
`N#CCNC(=O)[C@H](Cc1cccc(-c2ccccn2)c1)NC(=O)c1ccccc1`: the IC50 on Procathepsin L was 3160 nM; at Cathepsin L2, over 10000 nM; at Cathepsin B, 6310 nM; on Cathepsin K, over 10000 nM; on Cathepsin S, 631 nM.
Consider `N#CCNC(=O)[C@H](Cc1cccc(Cl)c1)NC(=O)c1ccccc1`, for which the IC50 is 251 nM on Procathepsin L; 794 nM on Cathepsin L2; 5010 nM at Cathepsin B; 3160 nM on Cathepsin K; 126 nM on Cathepsin S.
For `Cn1cc(-c2cccc(C[C@H](NC(=O)c3cc(C(C)(C)C)nn3C)C(=O)NCC#N)c2)cn1` the same measures were 15.8 nM, 158 nM, over 10000 nM, 6310 nM and 316 nM.
Consider `Cn1nc(C(C)(C)C)cc1C(=O)N[C@@H](Cc1cccc(-c2nnco2)c1)C(=O)NCC#N`, for which the IC50 on Procathepsin L is 15.8 nM; at Cathepsin L2 it was 20 nM; at Cathepsin B, over 10000 nM; on Cathepsin K, 126 nM; at Cathepsin S it was 63.1 nM.
On to `Cc1nnc(-c2cccc(C[C@H](NC(=O)c3cc(C(C)(C)C)nn3C)C(=O)NCC#N)c2)o1`, for which the IC50 on Procathepsin L was 5.01 nM; at Cathepsin L2, 6.31 nM; at Cathepsin B, over 10000 nM; on Cathepsin K it was 63.1 nM; on Cathepsin S it was 79.4 nM.
In the case of `Cn1nc(C(C)(C)C)cc1C(=O)N[C@@H](Cc1cccc(-c2nnc(CN)o2)c1)C(=O)NCC#N`, the IC50 was 2 nM on Procathepsin L; 39.8 nM at Cathepsin L2; 3980 nM on Cathepsin B; 1000 nM at Cathepsin K; 200 nM on Cathepsin S.
For `Cn1nccc1-c1cccc(C[C@H](NC(=O)c2ccccc2)C(=O)NCC#N)c1` the same measures were 3160 nM, 3160 nM, 7940 nM, over 10000 nM and 316 nM.
In the case of `Cc1nnc(-c2cccc(C[C@H](NC(=O)c3cc(C(C)(C)C)nn3C)C(=O)NCC#N)c2)s1`, the IC50 was 126 nM on Procathepsin L; 3.16 nM at Cathepsin L2; over 10000 nM on Cathepsin B; 3160 nM at Cathepsin K; 316 nM at Cathepsin S.
In the case of `N#CCNC(=O)[C@H](Cc1cccc(-c2cncnc2)c1)NC(=O)c1ccccc1`, the IC50 on Procathepsin L is 3980 nM; on Cathepsin L2, over 7940 nM; at Cathepsin B, over 10000 nM; at Cathepsin K, over 7940 nM; on Cathepsin S, 316 nM.
Consider `Cn1nc(C(C)(C)C)cc1C(=O)N[C@@H](Cc1cccc(-c2nncs2)c1)C(=O)NCC#N`, for which the IC50 was 5.01 nM on Procathepsin L; 6.31 nM on Cathepsin L2; over 10000 nM at Cathepsin B; 126 nM at Cathepsin K; 15.8 nM on Cathepsin S.
In the case of `N#CCNC(=O)[C@H](Cc1cccc(-c2ccnnc2)c1)NC(=O)c1ccccc1`, the IC50 was over 7940 nM at Procathepsin L; over 10000 nM on Cathepsin L2; over 10000 nM on Cathepsin B; over 10000 nM on Cathepsin K; 794 nM on Cathepsin S.
For `N#CCNC(=O)[C@H](Cc1cccc(-c2ccn[nH]2)c1)NC(=O)c1ccccc1`, the IC50 at Procathepsin L is 1580 nM; at Cathepsin L2 it was 3980 nM; on Cathepsin B, 5010 nM; at Cathepsin K it was over 10000 nM; on Cathepsin S it was 316 nM.
For `N#CCNC(=O)[C@H](Cc1cccc(-c2cn[nH]c2)c1)NC(=O)c1ccccc1`, the IC50 was 794 nM on Procathepsin L; 1580 nM at Cathepsin L2; 7940 nM on Cathepsin B; over 10000 nM on Cathepsin K; 79.4 nM at Cathepsin S.
For the compound `N#CCNC(=O)[C@H](Cc1cccc(-c2nncs2)c1)NC(=O)c1ccccc1`, the IC50 on Procathepsin L was 200 nM; on Cathepsin L2, 25.1 nM; on Cathepsin B it was over 10000 nM; on Cathepsin K, 631 nM; at Cathepsin S, 2.51 nM.
Take `Cc1cccc(C[C@H](NC(=O)c2cc(C(C)(C)C)nn2C)C(=O)NCC#N)c1`: the IC50 at Cathepsin L2 was 398 nM; on Cathepsin B, 3980 nM; at Cathepsin K, 2510 nM; at Cathepsin S, 794 nM.
Turning to `COCc1nnc(-c2cccc(C[C@H](NC(=O)c3cc(C(C)(C)C)nn3C)C(=O)NCC#N)c2)o1`, the half-maximal inhibitory concentration (IC50) on Procathepsin L was 3.98 nM; at Cathepsin L2, 2 nM; on Cathepsin B, over 10000 nM; on Cathepsin K it was 126 nM; on Cathepsin S it was 79.4 nM.
`Cn1cc(-c2cccc(C[C@H](NC(=O)c3ccccc3)C(=O)NCC#N)c2)cn1`: the IC50 on Procathepsin L is 501 nM; at Cathepsin L2, 1580 nM; on Cathepsin B, 6310 nM; on Cathepsin K it was over 10000 nM; at Cathepsin S, 100 nM.
